Active and inactive are the calls of the source.
Experiments:
Salmon testes DNA = test: acridine orange-DNA binding displacement – biochemical, fluorescence polarization, cherry-picked samples, set 2, artefact control for KSHV LANA DNA-binding inhibitor project, dose response (AID 504727); design: species or system Salmonidae
[1] = target: Dual specificity protein phosphatase 3 (Homo sapiens, UniProt P51452); test: SAR VHR1 Fluorescent Assay for In Vitro dose response studies. [Related pubchem assays (depositor defined):AID1654, AID1661, AID1878, AID1992, AID2004, AID2070, AID2085]; assay type: functional
Dual specificity protein phosphatase 3, sequence (P51452 whole entry): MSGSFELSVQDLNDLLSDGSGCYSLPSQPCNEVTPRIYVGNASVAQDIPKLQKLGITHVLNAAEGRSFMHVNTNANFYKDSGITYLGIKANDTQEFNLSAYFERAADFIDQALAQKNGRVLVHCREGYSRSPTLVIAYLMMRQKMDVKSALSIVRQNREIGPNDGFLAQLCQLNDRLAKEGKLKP

[2] = target: Eukaryotic translation initiation factor 4E (Mus musculus, UniProt P63073); test: blockers of eIF4G binding by eIF4E – biochemical, TR-FRET, dose response (AID 855); assay type: functional;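 note: potency for disrupting eIF4E binding to eIF4GI seen as loss of FRET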
Eukaryotic translation initiation factor 4E, sequence (P63073 whole entry): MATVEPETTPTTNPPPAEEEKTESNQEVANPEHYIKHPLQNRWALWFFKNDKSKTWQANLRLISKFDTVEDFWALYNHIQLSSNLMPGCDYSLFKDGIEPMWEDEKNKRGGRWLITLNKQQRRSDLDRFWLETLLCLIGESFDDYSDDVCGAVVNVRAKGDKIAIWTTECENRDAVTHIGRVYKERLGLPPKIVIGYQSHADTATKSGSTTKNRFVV

[3] = target: Glutathione-S-transferase (Schistosoma japonicum, UniProt Q26513); test: GST-antibody interaction or FRET quenching – biochemical, TR-FRET, artefact control for Vif-APOBEC3G degradation inhibitor project, dose response (AID 1117362); assay type: functional
Glutathione-S-transferase, sequence (Q26513 whole entry): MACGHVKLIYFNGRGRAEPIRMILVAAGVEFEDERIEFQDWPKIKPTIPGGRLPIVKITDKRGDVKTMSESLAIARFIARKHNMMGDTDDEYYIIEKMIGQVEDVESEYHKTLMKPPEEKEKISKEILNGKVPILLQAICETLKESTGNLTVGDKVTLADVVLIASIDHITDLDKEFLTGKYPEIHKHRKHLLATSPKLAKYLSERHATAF

Large T antigen = Large T antigen (Simian virus 40, UniProt P03070); assay type: functional, Betapolyomavirus macacae;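 note: Confirmatory-stage PubChem screen for compounds that inhibit SV40 T antigen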
Large T antigen, sequence (P03070 whole entry): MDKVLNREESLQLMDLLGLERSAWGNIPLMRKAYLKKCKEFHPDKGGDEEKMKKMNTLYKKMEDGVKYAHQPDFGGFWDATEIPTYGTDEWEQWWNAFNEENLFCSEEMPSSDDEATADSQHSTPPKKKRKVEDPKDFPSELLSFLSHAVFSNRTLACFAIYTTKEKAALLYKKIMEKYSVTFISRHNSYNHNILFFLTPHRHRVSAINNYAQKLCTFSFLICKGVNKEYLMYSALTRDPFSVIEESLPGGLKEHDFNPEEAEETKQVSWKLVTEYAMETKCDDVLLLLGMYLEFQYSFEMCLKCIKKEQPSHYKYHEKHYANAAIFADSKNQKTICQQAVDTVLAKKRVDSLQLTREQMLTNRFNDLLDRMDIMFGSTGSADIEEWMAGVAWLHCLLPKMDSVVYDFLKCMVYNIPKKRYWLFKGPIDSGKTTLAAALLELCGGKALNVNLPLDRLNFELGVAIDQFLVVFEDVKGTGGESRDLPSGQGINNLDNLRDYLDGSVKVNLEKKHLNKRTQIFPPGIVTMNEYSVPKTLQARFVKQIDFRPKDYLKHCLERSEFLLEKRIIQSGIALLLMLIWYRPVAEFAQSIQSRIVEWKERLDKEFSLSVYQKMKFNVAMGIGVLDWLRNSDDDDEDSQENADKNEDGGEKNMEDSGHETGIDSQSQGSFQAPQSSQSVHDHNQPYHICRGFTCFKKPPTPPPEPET

Genome polyprotein = Genome polyprotein (dengue virus type 2, UniProt P29990); test: flavivirus cap methylation enzyme inhibition – biochemical, confirmation dose response, primary screen (AID 588689); assay type: functional
Genome polyprotein, sequence (P29990 2492-3391 limits assumed): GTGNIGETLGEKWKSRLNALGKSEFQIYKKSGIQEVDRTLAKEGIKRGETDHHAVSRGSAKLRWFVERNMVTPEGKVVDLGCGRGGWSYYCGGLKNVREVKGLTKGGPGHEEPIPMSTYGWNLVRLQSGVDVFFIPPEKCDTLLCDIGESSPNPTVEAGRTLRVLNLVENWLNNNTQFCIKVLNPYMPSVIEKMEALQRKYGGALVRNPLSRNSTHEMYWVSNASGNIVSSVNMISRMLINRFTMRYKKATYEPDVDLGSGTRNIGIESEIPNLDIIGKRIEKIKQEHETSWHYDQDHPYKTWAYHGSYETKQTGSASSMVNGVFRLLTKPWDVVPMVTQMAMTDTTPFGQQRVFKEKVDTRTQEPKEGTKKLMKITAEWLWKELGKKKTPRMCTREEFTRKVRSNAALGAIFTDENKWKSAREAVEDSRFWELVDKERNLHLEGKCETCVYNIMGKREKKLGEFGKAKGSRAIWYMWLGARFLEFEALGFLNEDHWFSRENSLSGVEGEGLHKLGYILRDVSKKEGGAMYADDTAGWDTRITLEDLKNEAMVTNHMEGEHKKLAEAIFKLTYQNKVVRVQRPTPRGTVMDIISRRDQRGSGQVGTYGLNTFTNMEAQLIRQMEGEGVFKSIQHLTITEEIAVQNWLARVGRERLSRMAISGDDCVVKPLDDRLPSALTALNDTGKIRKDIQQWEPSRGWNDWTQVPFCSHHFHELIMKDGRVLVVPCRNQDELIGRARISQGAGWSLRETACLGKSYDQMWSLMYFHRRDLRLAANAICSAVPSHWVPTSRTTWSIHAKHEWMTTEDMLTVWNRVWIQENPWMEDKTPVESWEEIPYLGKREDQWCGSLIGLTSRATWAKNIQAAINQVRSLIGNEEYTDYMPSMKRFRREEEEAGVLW

[4] = target: Induced myeloid leukemia cell differentiation protein Mcl-1 (Homo sapiens, UniProt Q07820); assay type: functional
Induced myeloid leukemia cell differentiation protein Mcl-1, sequence (Q07820 whole entry): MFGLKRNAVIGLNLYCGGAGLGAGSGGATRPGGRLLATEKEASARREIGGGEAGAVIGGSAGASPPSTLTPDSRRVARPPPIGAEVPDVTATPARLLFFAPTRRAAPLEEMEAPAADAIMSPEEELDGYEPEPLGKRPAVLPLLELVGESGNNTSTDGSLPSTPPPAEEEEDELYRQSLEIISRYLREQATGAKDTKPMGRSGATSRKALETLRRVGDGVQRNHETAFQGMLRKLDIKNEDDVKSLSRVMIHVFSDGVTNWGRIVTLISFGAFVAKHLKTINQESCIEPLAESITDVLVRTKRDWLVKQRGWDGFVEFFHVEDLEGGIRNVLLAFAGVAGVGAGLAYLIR

[5] = target: T1, Polyadenylate-binding protein 1 (Homo sapiens, UniProt P11940); test: MLLE binding blockers, Cy5 peptide tracer – biochemical, fluorescence polarization, Cy5-PAM2 peptide, secondary, miRNA deadenylation inhibitor project, dose response (AID 602260); assay type: functional; conditions: read-out: IC50_Mean
T1 sequence (P11940 whole entry): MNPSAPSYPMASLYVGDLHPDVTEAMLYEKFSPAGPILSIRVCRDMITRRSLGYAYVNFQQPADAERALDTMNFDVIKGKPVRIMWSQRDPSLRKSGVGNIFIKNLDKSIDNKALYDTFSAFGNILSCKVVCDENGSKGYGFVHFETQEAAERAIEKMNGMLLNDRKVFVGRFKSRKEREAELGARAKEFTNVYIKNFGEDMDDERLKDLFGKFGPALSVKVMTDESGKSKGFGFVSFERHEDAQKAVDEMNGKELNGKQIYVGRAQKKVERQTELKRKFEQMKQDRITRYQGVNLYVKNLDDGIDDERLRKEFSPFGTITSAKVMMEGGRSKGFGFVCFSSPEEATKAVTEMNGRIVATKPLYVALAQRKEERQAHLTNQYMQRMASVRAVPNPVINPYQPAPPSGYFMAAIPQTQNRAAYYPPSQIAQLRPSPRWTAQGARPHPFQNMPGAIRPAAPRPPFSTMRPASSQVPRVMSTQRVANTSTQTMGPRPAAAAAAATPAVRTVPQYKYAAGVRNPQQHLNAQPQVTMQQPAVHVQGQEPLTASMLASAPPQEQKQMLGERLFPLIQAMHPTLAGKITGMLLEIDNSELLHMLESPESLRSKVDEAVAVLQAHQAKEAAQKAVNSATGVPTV

ORF 73 = target: T2, ORF 73 (Human herpesvirus 8, UniProt O40947); test: KSHV LANA DNA-binding disruption – biochemical, fluorescence polarization, cherry-picked samples, dose response (AID 504725); design: species or system Human gammaherpesvirus 8;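 note: fluorescence polarization of a labeled DNA duplex reporting LANA DNA binding; potency is for inhibitors that block LANA binding to the DNA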
T2 sequence (O40947 whole entry): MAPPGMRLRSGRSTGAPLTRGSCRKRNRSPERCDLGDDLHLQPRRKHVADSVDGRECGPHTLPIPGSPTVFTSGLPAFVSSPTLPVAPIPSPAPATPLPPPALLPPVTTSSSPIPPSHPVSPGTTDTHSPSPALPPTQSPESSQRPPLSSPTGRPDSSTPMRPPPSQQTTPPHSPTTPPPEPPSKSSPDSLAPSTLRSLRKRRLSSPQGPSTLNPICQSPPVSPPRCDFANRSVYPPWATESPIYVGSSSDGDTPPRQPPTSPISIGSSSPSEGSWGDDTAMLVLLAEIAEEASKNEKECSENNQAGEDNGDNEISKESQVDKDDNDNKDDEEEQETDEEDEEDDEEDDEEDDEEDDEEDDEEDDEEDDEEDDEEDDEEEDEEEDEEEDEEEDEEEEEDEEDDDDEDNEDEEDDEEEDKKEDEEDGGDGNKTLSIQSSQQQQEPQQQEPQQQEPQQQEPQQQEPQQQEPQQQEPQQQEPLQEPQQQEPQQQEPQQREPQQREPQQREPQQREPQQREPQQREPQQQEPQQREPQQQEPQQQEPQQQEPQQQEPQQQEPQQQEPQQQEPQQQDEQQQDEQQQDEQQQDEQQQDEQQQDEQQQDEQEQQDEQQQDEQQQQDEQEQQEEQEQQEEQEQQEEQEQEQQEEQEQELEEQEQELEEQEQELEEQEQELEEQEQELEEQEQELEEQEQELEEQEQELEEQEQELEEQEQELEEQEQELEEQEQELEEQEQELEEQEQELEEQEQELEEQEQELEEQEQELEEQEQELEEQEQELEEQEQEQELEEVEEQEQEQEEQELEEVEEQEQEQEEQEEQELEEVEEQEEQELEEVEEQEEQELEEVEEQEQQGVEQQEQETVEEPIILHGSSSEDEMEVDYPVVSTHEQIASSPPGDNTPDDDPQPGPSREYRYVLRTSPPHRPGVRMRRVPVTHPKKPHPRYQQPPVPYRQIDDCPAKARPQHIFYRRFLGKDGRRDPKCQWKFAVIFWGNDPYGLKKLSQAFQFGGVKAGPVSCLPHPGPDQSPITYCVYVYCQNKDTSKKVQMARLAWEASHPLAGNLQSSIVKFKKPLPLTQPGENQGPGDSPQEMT

Albumin = Albumin (Bos taurus, UniProt P02769); test: Counterscreen for inhibitors of T-cell receptor (TCR)-CD3 interaction: Fluorescence-based biochemical high throughput dose response assay to identify inhibitors of T-cell receptor (TCR)-CD3 interaction using a TAMRA-labeled BSA probe.; assay type: functional
Albumin, sequence (P02769 whole entry, the tested form may be a part): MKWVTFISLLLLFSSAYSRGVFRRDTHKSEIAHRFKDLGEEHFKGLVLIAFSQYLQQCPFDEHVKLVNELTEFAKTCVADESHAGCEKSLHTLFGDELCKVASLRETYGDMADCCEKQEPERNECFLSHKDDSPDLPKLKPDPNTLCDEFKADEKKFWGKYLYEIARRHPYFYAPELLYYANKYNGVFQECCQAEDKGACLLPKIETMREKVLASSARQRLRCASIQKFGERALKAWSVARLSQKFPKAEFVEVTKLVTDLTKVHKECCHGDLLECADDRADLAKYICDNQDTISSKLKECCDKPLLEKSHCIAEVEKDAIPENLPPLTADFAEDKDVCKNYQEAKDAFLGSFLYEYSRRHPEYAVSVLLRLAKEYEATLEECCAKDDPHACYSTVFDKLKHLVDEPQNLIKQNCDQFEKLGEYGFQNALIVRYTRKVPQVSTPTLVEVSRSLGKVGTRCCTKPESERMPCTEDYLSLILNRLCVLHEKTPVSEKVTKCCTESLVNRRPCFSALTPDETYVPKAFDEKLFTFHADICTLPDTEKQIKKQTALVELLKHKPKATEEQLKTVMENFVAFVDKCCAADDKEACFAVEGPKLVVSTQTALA

[6] = target: T1, Polyadenylate-binding protein 1; test: MLLE domain peptide-binding blockers, IC50 – biochemical, fluorescence polarization, FITC-PAM2 peptide, dose response (AID 602259); assay type: functional; conditions: read-out: IC50_Mean
[7] = target: T3, Apoptotic protease-activating factor 1 (Homo sapiens, UniProt O14727); assay type: functional
T3 sequence (O14727 whole entry): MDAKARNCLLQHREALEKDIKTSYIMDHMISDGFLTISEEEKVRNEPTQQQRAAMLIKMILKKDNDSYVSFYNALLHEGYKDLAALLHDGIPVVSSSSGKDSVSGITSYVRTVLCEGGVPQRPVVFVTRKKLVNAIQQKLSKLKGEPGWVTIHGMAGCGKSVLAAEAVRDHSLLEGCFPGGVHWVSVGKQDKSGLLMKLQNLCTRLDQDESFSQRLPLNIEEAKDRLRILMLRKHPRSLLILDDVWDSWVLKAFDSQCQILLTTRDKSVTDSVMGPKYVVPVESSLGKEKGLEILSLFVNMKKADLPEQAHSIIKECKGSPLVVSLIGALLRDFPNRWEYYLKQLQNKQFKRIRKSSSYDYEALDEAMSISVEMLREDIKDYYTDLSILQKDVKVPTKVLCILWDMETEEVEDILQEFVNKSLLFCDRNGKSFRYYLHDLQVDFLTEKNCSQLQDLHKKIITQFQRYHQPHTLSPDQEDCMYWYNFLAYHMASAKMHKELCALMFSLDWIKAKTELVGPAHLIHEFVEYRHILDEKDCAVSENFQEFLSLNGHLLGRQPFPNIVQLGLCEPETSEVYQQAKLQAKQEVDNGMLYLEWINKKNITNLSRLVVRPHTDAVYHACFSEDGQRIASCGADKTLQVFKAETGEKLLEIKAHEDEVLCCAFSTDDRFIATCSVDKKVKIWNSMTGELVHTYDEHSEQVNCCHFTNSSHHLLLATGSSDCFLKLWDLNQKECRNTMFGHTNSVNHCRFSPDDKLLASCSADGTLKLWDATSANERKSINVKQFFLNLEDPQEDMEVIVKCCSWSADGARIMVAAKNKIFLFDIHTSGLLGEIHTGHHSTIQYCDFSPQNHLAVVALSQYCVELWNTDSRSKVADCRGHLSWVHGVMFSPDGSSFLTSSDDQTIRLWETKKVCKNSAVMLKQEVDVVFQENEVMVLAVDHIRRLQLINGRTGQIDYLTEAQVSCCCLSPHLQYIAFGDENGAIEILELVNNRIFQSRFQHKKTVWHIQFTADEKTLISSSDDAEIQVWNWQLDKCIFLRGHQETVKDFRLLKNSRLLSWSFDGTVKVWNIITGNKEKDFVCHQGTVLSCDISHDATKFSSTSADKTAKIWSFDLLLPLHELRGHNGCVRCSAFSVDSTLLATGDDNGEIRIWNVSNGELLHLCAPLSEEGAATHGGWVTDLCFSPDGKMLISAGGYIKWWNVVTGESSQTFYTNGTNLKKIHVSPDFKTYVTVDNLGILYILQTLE

[8] = target: T4, Tyrosine-protein phosphatase non-receptor type 7 (Homo sapiens, UniProt P35236); test: redox-active compounds inhibiting HePTP phosphatase – biochemical, fluorescence, mechanism study (AID 2068); assay type: functional
T4 sequence (P35236 whole entry): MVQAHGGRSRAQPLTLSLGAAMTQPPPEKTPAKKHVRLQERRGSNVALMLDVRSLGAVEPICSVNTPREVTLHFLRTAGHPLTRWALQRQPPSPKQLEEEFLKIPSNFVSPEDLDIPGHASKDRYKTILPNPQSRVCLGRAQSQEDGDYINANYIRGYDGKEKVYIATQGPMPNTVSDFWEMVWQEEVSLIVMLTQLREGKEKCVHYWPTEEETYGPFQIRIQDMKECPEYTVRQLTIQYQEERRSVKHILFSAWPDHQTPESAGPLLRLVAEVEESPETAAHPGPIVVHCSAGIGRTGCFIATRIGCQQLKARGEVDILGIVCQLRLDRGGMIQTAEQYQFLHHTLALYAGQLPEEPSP

## COCCNC(=O)Nc1ccc2nc(-c3ccco3)c(-c3ccco3)nc2c1
Salmon testes DNA
  AC50: 63.1 µM (active)
[1]
  IC50: 0.492 µM (active)
[2]
  IC50: 50 µM (inactive)
[3]
  IC50: > 100 µM (active)
Large T antigen
  IC50: > 100 µM (active)
Genome polyprotein
  IC50: 27.9 µM (active)
[4]
  IC50: 0.831 µM (active)
[5]
  IC50: > 66 µM (inactive)
ORF 73
  AC50: 23.5 µM (active)
Albumin
  IC50: > 94.1 µM (inactive)
[6]
  IC50: 39.2 µM (inactive)
[7]
  IC50: 52 µM (active)
[8]
  IC50: 0.198 µM (active)

— ChEMBL document CHEMBL1201862, “PubChem BioAssay data set” (2004)
